# Measurements from US20200383627A1, “TECHNIQUES FOR TREATMENT OF EPILEPTIC DISORDERS USING ELECTROPHYSIOLOGICAL BIOMARKERS AND RELATED SYSTEMS AND METHODS” (Children's Medical Center Corporation, priority 2017, published 2020).
# How the values were obtained:
# Assay type in all cases: in vivo, human
# [1] = system: patients with infantile spasms (IS); test: Clinical outcome assessment of ACTH treatment (spasms frequency, response, relapse); design: Sf diff (spasms frequency, baseline minus follow-up) / Seizure frequency, Follow-up / Spasms frequency Follow-up / Spasms frequency Change: unit not given here; conditions: for Spasms frequency Change / Spasms frequency Follow-up: median
# From the text: One-hundred-fifty (83 males; 55%) out of 170 patients were included for the clinical outcome assessment study. Mean age of spasms onset was 6.6 (±3.4) months. The mean time to treatment and follow-up duration were 39 (±50) and 38 (±49) days, respectively. Fifty-one out of 150 (34%) of patients had abnormal MRI findings.
# The etiology of IS was: genetic/inborn metabolic in 28 (19%), unknown in 71 (47%), and structural brain abnormality (acquired and congenital) in 51 (34%). […] During the ACTH treatment, 86 (57%) patients were receiving concomitant ASMs (Table 1).
# One hundred-one of 150 patients (67%) were deemed responders to the ACTH treatment at follow-up assessment, with IS cessation and resolution of hypsarrhythmia (Table 2). Thirty out of 101 initial responders (30%) experienced a relapse. Clinical parameters such as age of onset, sex, MRI finding, previous seizure history, previous and concomitant AED treatment, etiology, and baseline EEG were not prognostic factors for response and relapse (Tables 2-3).
# (§1) Different criteria have been utilized to determine response to treatment in previous studies. Our EEG responder criteria are consistent with the criteria used in several previous studies, comprising IS freedom for at least seven consecutive days during treatment, and disappearance of hypsarrhythmia on follow-up EEG assessment. Although the presence of hypsarrhythmia has been considered crucial for the diagnosis and evaluating treatment response in IS, hypsarrhythmia may not be present at diagnosis in 25% of cases. Lack of hypsarrhythmia may be seen in patients with prior AED treatment, the early phase of IS, and late onset of spasms. […] Our findings highlight the importance of new quantitive biomarkers for evaluating EEGs in IS.
# [2] = system: patients with infantile spasms (IS); test: EEG pattern (hypsarrhythmia) at follow-up assessment after ACTH treatment
# From the text: The presence of hypsarrhythmia is often used as a diagnostic criteria for IS, and is characterized by an abnormal interictal pattern consisting of high amplitude and irregular waves and spikes in a background of chaotic and disorganized activity within the EEG signals.
# At baseline, 54 (36%) had hypsarrhythmia pattern, 75 (50%) had modified hypsarrhythmia pattern, and 21 (14%) had other abnormalities (without hypsarrhythmia) (Table 1). At the follow-up assessment, 58 patients with good response had abnormal EEG findings (abnormalities other than hypsarrhythmia, such as multifocal spikes or sharp waves, abnormal slow wave and fast activity). In terms of the EEG pattern, there was no difference between poor- and good responders, and between the patients who relapsed and the sustained responders (Tables 2-3).
# as §1
# [3] = system: patients with infantile spasms (IS); test: Quantitative EEG analysis (manual/automatic spike count, delta power) before and after ACTH treatment; conditions: for Delta Power Change / Spike Count (Automatic) Change / Spike Count (Manual) Change / Delta Power Follow-up / Spike Count (Manual) Follow-up / Spike Count (Automatic) Follow-up: median
# Experimental: In act 602, EEG data of a subject is obtained in any manner described above in relation to act 102 of FIG. 1. In act 604, a power spectral density (PSD) of at least part of the EEG data is calculated. The PSD, as discussed above, provides information on the amount of power present in various frequency components of the EEG signal(s). As one non-limiting example, a Fast Fourier Transform (FFT) of one or more EEG signals may be performed to determine the PSD of the EEG signals. Suitable parameters of the FFT operation may include a time constant of 0.16 seconds, a sampling rate of 64 Hz, and/or an FFT window duration of 2 seconds. In some embodiments, a high-pass, low-pass and/or band-pass filter may be applied to EEG signals prior to generation of a PSD. For instance, frequencies above 35 Hz may be filtered from the EEG signals and a PSD generated based on the resulting filtered EEG signals. It will be appreciated that, because an FFT operates on a window of time of the EEG signal(s), a number of PSDs may be calculated for a number of (overlapping or non-overlapping) windows of time of the EEG signal(s). As a result, act 604 may be performed numerous times.
# In act 606, a delta power is calculated based on a PSD calculated in act 604. In cases where a number of PSDs are calculated in act 604, a number of delta powers may be calculated in act 606 by calculating a delta power for each PSD. In some cases, the delta power may vary over time within the EEG signals obtained from a subject in a single session. In these cases, it may be preferable to obtain a single average value of the delta power from the EEG signals by, for instance, calculating the mean of the calculated delta power. Delta power may be calculated by determining the total spectral power present within the calculated PSD data between the frequency bounds of the delta band (e.g., 0.5 Hz to 4 Hz). In some cases, the delta power may be calculated by determining a total area under the PSD curve within the delta band's frequency range.
# In act 702, EEG data of a subject is obtained in any manner described above in relation to act 102 of FIG. 1. In act 704, a plurality of wavelet coefficients may be calculated based on the EEG data obtained in act 702. As discussed above, wavelet analysis may represent a particularly desirable approach to identifying spikes due to the natural ability of wavelets to identify rapid changes in a signal's amplitude. Act 704 may comprise any suitable approach to determining wavelet coefficients, including a continuous wavelet transform (CWT), a discrete wavelet transform (DWT) and/or a stationary wavelet transform (SWT). In some embodiments, an SWT analysis may be preferable because the results are invariant with respect to time shifts, although a greater redundancy in data may be produced compared with a DWT analysis, for example. Any suitable wavelet family may be utilized during act 704, including haar, daubechies, biorthogonal, coiflets and/or symlets (e.g., symlet4).
# In act 706, spikes are identified from the wavelet coefficients determined in act 704. Act 706 may comprise identifying a number of instances in which the wavelet coefficients have values above or below a suitable threshold that represents an incidence of a spike, to produce a spike count. A spike frequency may be determined by dividing the spike count by the total amount of time represented by the EEG data.
# Fifty out of these 150 patients had original EEG data available for analysis met criteria for the comparison of baseline and follow-up electrophysiological evaluation.
# The magnitude of changes in the EEG parameters (spike quantification and slow wave activity) were more prominent in patients responders as compared to non-responders (MSC diff: 169 vs.44 spikes; p<0.001, ASCA diff: 157 vs.55 spikes; p<0.001, DP diff: 11.3 vs.2.3, Sf diff: 158 vs. 60; p<0.05 respectively in responders vs. non-responders, Table 5).
# [4] = Patients without Relapse (n: 20)
# [5] = percentage of 101 initial responders
# [6] = patients with sustained response
substance,measurement,setting,value
"Adrenocorticotropic hormone (SYSMEHFRWGKPVGKKRRPVKVYPNGAEDESAEAFPLEF; Corticotropin; UniProt P01189 138-176, looked up) [ACTH, polypeptide tropic hormone produced by and secreted by the anterior pituitary gland; used to treat infantile spasms]",relapse rate among initial responders,[1]; 30 of 101 initial responders,30%
same,response rate (responders to the ACTH treatment at follow-up: IS cessation and resolution of hypsarrhythmia),"[1]; 101 of 150 patients, follow-up after day 14 of treatment",67%
same,Spasms frequency follow up/week,"[1]; Good Response (n): 101, baseline 318",80 /week
same,Spasms frequency Change,[1]; Good responder (n: 31),84
same,Spasms frequency Follow-up,"[1]; Good responder (n: 31), baseline 122",0
same,Spasms frequency Change,[1]; Patients with Relapse (n: 11),11
same,Spasms frequency Follow-up,"[1]; Patients with Relapse (n: 11), baseline 140",42
same,Spasms frequency Change,[1]; [4],117
same,Spasms frequency Follow-up,"[1]; Patients without Relapse (n: 20), baseline 117",0
same,Spasms frequency follow up/week,"[1]; Poor Response (n): 49, baseline 242",233 /week
same,Spasms frequency Change,[1]; Poor responder (n: 19),43
same,Spasms frequency Follow-up,"[1]; Poor responder (n: 19), baseline 105",70
same,Spasms frequency follow up/week,"[1]; Relapse (n): 30, baseline 311",270 /week
same,Spasms frequency follow up/week,"[1]; Without Relapse (n): 71, baseline 322",0 /week
same,"Seizure frequency, Follow-up","[1]; n: 50, mean, baseline 192",70
same,"Clinical response No, number of patients",[1]; n: 150,49
same,"Clinical response Yes, number of patients","[1]; n: 150, IS cessation and resolution of hypsarrhythmia at follow-up",101
same,spasm frequency after ACTH treatment (median weekly),"[1]; n: 150, before treatment 294, p<0.001",130
same,Follow up spasms frequency,"[1]; n: 150, mean (SD), baseline 294/week",130 /week
same,"Sf diff (spasms frequency, baseline minus follow-up)",[1]; non-responders,60
same,"Relapse (if good response exist) No, number of patients",[1]; of 101 initial responders,71
same,"Relapse (if good response exist) Yes, number of patients",[1]; of 101 initial responders,30
same,"Relapse (if good response exist) No, share of patients",[1]; [5],(70.3)
same,"Relapse (if good response exist) Yes, share of patients",[1]; [5],(29.7)
same,"Clinical response No, share of patients",[1]; percentage of n: 150,(32.7)
same,"Clinical response Yes, share of patients",[1]; percentage of n: 150,(67.3)
same,"Sf diff (spasms frequency, baseline minus follow-up)",[1]; responders,158
same,"Follow-up EEG features: Normal EEG, number of patients",[2]; n: 150,44
same,"Follow-up EEG features: Without Hypsarrhythmia, number of patients","[2]; n: 150, baseline 21",94
same,"Follow-up EEG features: Hypsarrhythmia, number of patients","[2]; n: 150, baseline 54",6
same,"Follow-up EEG features: Modified Hypsarrhythmia, number of patients","[2]; n: 150, baseline 75",6
same,"Follow-up EEG features: Normal EEG, share of patients",[2]; percentage of n: 150,(29.3)
same,"Follow-up EEG features: Without Hypsarrhythmia, share of patients","[2]; percentage of n: 150, baseline (14)",(62.7)
same,"Follow-up EEG features: Hypsarrhythmia, share of patients","[2]; percentage of n: 150, baseline (36)",(4)
same,"Follow-up EEG features: Modified Hypsarrhythmia, share of patients","[2]; percentage of n: 150, baseline (50)",(4)
same,Delta Power Change,[3]; Good responder (n: 31),10.2
same,Spike Count (Automatic) Change,[3]; Good responder (n: 31),144
same,Spike Count (Manual) Change,[3]; Good responder (n: 31),153
same,Delta Power Follow-up,"[3]; Good responder (n: 31), baseline 24.7",13.4
same,Spike Count (Manual) Follow-up,"[3]; Good responder (n: 31), baseline 232",48
same,Spike Count (Automatic) Follow-up,"[3]; Good responder (n: 31), baseline 244",53
same,Delta Power Change,[3]; Patients with Relapse (n: 11),6
same,Spike Count (Automatic) Change,[3]; Patients with Relapse (n: 11),50
same,Spike Count (Manual) Change,[3]; Patients with Relapse (n: 11),51
same,Delta Power Follow-up,"[3]; Patients with Relapse (n: 11), baseline 23.6",17.1
same,Spike Count (Manual) Follow-up,"[3]; Patients with Relapse (n: 11), baseline 187",86
same,Spike Count (Automatic) Follow-up,"[3]; Patients with Relapse (n: 11), baseline 197",117
same,Delta Power Change,[3]; [4],14.6
same,Spike Count (Automatic) Change,[3]; [4],176
same,Spike Count (Manual) Change,[3]; [4],212
same,Delta Power Follow-up,"[3]; Patients without Relapse (n: 20), baseline 26.4",10.5
same,Spike Count (Manual) Follow-up,"[3]; Patients without Relapse (n: 20), baseline 247",10
same,Spike Count (Automatic) Follow-up,"[3]; Patients without Relapse (n: 20), baseline 257",28.5
same,Delta Power Change,[3]; Poor responder (n: 19),3.1
same,Spike Count (Automatic) Change,[3]; Poor responder (n: 19),47
same,Spike Count (Manual) Change,[3]; Poor responder (n: 19),52
same,Delta Power Follow-up,"[3]; Poor responder (n: 19), baseline 21.7",19.5
same,Spike Count (Automatic) Follow-up,"[3]; Poor responder (n: 19), baseline 236",152
same,Spike Count (Manual) Follow-up,"[3]; Poor responder (n: 19), baseline 242",168
same,DP (delta power) at follow-up EEG,"[3]; n: 50, baseline 25.1, p<0.001",17.2 μV
same,"Delta Power, Follow-up EEG","[3]; n: 50, mean, baseline 25.1",17.2
same,"Spike Count Automatic, Follow-up EEG","[3]; n: 50, mean, baseline 232",113
same,"Spike Count Manual, Follow-up EEG","[3]; n: 50, mean, baseline 234",112
same,"ASCA diff (automatic spike count, baseline minus follow-up)",[3]; patients who relapsed,75
same,"DP diff (delta power, baseline minus follow-up)",[3]; patients who relapsed,5.4
same,"MSC diff (manual spike count, baseline minus follow-up)",[3]; patients who relapsed,76
same,"ASCA diff (automatic spike count, baseline minus follow-up)",[3]; [6],202
same,"DP diff (delta power, baseline minus follow-up)",[3]; [6],14.6
same,"MSC diff (manual spike count, baseline minus follow-up)",[3]; [6],220
same,"ASCA diff (automatic spike count, baseline minus follow-up)",[3]; responders,157 spikes
same,"DP diff (delta power, baseline minus follow-up)",[3]; responders,11.3
same,"MSC diff (manual spike count, baseline minus follow-up)",[3]; responders,169 spikes
